Laboratory results reported in PubChem BioAssay (NCI).
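Cells were grown in 96-well plates and exposed to each compound for 48 hours at five concentrations; endpoints were interpolated linearly between bracketing concentrations, or set to the highest concentration if not reached. GI50: concentration for 50% inhibition of growth. Definition used: TGI = concentration required for complete inhibition of growth.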

Experiments:
Test in all cases: NCI-60 cell line screen, 48 h
EKVX NSCLC = tested on: EKVX NSCLC
OVCAR-5 ovarian = tested on: OVCAR-5 ovarian
A498 renal = tested on: A498 renal
KM12 colon = tested on: KM12 colon
NCI/ADR-RES ovarian = tested on: NCI/ADR-RES ovarian
SK-MEL-2 melanoma = tested on: SK-MEL-2 melanoma
IGROV1 ovarian = tested on: IGROV1 ovarian
UACC-257 melanoma = tested on: UACC-257 melanoma
OVCAR-8 ovarian = tested on: OVCAR-8 ovarian
PC-3 prostate = tested on: PC-3 prostate

SMILES | TGI (EKVX NSCLC) | TGI (OVCAR-5 ovarian) | TGI (A498 renal) | TGI (KM12 colon) | TGI (NCI/ADR-RES ovarian) | TGI (SK-MEL-2 melanoma) | TGI (IGROV1 ovarian) | TGI (UACC-257 melanoma) | TGI (OVCAR-8 ovarian) | TGI (PC-3 prostate) | GI50 (EKVX NSCLC) | GI50 (OVCAR-5 ovarian) | GI50 (A498 renal) | GI50 (KM12 colon) | GI50 (NCI/ADR-RES ovarian) | GI50 (SK-MEL-2 melanoma) | GI50 (IGROV1 ovarian) | GI50 (UACC-257 melanoma) | GI50 (PC-3 prostate) | GI50 (OVCAR-8 ovarian)
CN(C)C(=S)SCc1ccccc1 | > 100 µM | > 100 µM | > 100 µM | > 100 µM | > 100 µM | > 100 µM | > 100 µM | > 100 µM | > 100 µM | – | – | – | – | – | – | – | – | – | – | –
CCC(C)(C)c1ccc(Oc2cccc(C(=O)O)c2)cc1 | > 100 µM | > 100 µM | > 100 µM | > 100 µM | > 100 µM | > 100 µM | > 100 µM | > 100 µM | > 100 µM | > 100 µM | – | – | – | – | – | – | – | – | – | –
C/C(=C\c1ccc2c(c1)OCO2)[N+](=O)[O-] | 16.4 µM | 15.1 µM | 24.3 µM | – | 37.9 µM | 5.49 µM | 5.89 µM | 5.54 µM | 5.79 µM | 5.9 µM | – | – | – | – | – | – | – | – | – | –
CCOC(=O)c1cc(Cl)ccc1OC(N)=O | > 100 µM | > 100 µM | > 100 µM | > 100 µM | > 100 µM | > 100 µM | > 100 µM | > 100 µM | > 100 µM | – | – | – | – | – | – | – | – | – | – | –
C(=N/Nc1ccccn1)/c1cccnc1 | > 100 µM | > 100 µM | > 100 µM | > 100 µM | > 100 µM | > 100 µM | > 100 µM | > 100 µM | > 100 µM | > 100 µM | – | – | – | – | – | – | – | – | – | –
Cc1cccc(C(O)c2ccccn2)c1O (centres undefined) | > 100 µM | > 100 µM | – | > 100 µM | > 100 µM | – | > 100 µM | > 100 µM | > 100 µM | > 100 µM | – | – | – | – | – | – | – | – | – | –
Nc1nc(Cl)nc2c1ncn2C1CCC(CO)O1 (centres undefined) | – | > 100 µM | > 100 µM | > 100 µM | > 100 µM | > 100 µM | > 100 µM | > 100 µM | > 100 µM | > 100 µM | – | – | – | – | – | – | – | – | – | –
Clc1ccc(CSCc2ccc(Cl)cc2Cl)c(Cl)c1 | > 100 µM | > 100 µM | > 100 µM | > 100 µM | > 100 µM | 51.3 µM | > 100 µM | 64.7 µM | > 100 µM | > 100 µM | – | – | – | – | – | – | – | – | – | –
N#CC(C#N)=Cc1ccc(-c2ccc(-c3nc4ccccc4s3)cc2)s1 | > 100 µM | 30.5 µM | 41.1 µM | 78.5 µM | 22.7 µM | > 100 µM | 27.1 µM | > 100 µM | 72.2 µM | 23.1 µM | 29.6 µM | 14 µM | 18.7 µM | 19.9 µM | 5.74 µM | 33.1 µM | 4.62 µM | 65.3 µM | 6.23 µM | 23.1 µM
CC1=C/C(=C(/c2ccc(O)c(C)c2)c2ccccc2C(=O)O)C=CC1=O | 36 µM | 42.3 µM | 32.8 µM | 36.6 µM | 80.5 µM | 38.5 µM | 34.1 µM | 35.8 µM | 36.3 µM | 35.9 µM | – | – | – | – | – | – | – | – | – | –
